Laboratory results published in US6909014B2, “Intermediates for the synthesis of ether compounds” (Esperion Therapeutics, Inc., priority 1999, dated 2005).
Blank lines part the entries; values can stand above or below the compound they belong to.

Key:
[1] = system: hepatocytes isolated from a male Sprague-Dawley rat; assay: Synthesis of non-saponified and saponified lipids (14C-acetate incorporation) in hepatocytes; type: cell-based; settings: 100 μM, 14C-acetate labeling 2 hr (FIG. 18)
Protocol: A male Sprague-Dawley rat was anesthetized by administration of sodium pentobarbitol by intraparitoneal injection at 50 mg/kg. In situ perfusion of the liver was performed as follows. […] To digest the liver, DSC solution (6.7 mM KCl, 143 mM NaCl, 9.2 mM Na HEPES, 5 mM CaCl2-2H2O, 1.7 mM Fructose, 0.029 mM Phenol red, 0.2% BSA, 100 U/ml collagenase Type I, 93 U/ml Hyaluronidase, 160 BAEE/ml trypsin inhibitor, pH 7.5) was perfused through the liver at a flow rate of 30 ml/min for 6 minutes at a temperature of 37° C. After digestion, cells were dispersed in a solution of DMEM-(DMEM containing 2 mM GlutMax-1, 0.2% BSA, 5% FBS, 12 nM insulin, 1.2 μM hydrocortisone) to stop the digestion process. The crude cell suspension was filtered through three layers of stainless steel mesh with pore sizes of 250, 106, and 75 μm respectively. Filtered cells were centrifuged at 50×g for two minutes and the supernatant discarded. The resulting cell pellet was resuspended in DMEM and centrifuged again. This final cell pellet was resuspended in DMEM+HS solution (DMEM containing 2 mM GlutMax-1, 20 nM delta-aminolevulinic acid, 17.4 mM MEM non-essential amino acids, 20% FBS, 12 nM insulin, 1.2 μM hydrocortisone) and plated to form monolayer cultures at a density of 100×10^3 cells/cm^2 on collagen coated culture dishes. […]

[2] = system: chow fed obese female Zucker rats; assay: Experiments B, C, D, E: serum lipids, glucose, insulin, body and liver weight in obese female Zucker rats, 14 days; type: in vivo, rat
Protocol: In a number of different experiments, illustrative compounds of the invention and troglitazone were administered daily at various doses to 10-week old chow fed obese female Zucker rats for 14 days in the morning by oral gavage in 1.5% carboxymethylcellulose/0.2% Tween-20 (dosing vehicle). Animals were weighed daily. Animals were allowed free access to rodent chow and water throughout the study. Blood glucose was determined after a 6-hour fast in the afternoon without anesthesia from a tail vein. Serum was also prepared from a blood sample subsequently obtained from the orbital venous plexus (with O2/CO2 anesthesia) prior to and after one week treatment and used lipid and insulin determinations. At two weeks, blood glucose was again determined after a 6-hour fast without anesthesia from a tail vein. Soon thereafter, animals were sacrificed by CO2 inhalation in the evening and cardiac blood serum was collected and assessed for various lipids and insulin. Body weight was determined daily prior to dosing and at the time of euthanasia.

[3] = system: LDL receptor deficient mice; assay: Lipoprotein cholesterol profile in LDL receptor-deficient mice; type: in vivo; settings: 300 mg/kg/day, one week; 4 chow-fed female mice (FIG. 17)
Source text: The effect of Compound A on LDL levels in a murine model of homozygous familial hypercholesterolemia (Ishibashi et al., 1993, J. Clin. Invest. 92:883-893; Ishibashi et al., 1994, J. Clin. Invest. 93:1885-1893) was studied. LDL receptor-deficient mice have elevated LDL cholesterol relative to wild type mice when fed a chow diet. When fed cholesterol-enriched diets, these mice develop atherosclerosis.

[4] = system: female obese Zucker rats; assay: Experiment A: serum lipids, glucose, non-esterified fatty acids and weight gain in obese female Zucker rats, seven days; type: in vivo, rat; settings: Compound A 86 mg/kg, one week
Protocol: Dosing vehicle, Compound A (86 mg/kg of body weight) or troglitazone (120 mg/kg of body weight) was administered to eight week old female obese Zucker rats daily for seven days in the morning by oral gavage in 1.5% carboxymethylcellulose/0.2% Tween-20. Troglitazone was obtained commercially. Finely crushed tablets were suspended in vehicle for dosing. Orbital blood samples were obtained following a six-hour fast prior to the initial dose and also following the seventh dose.
Blood serum was assayed for total cholesterol and triglycerides (FIG. 5), lipoprotein cholesterol profiles (FIG. 6), VLDL plus LDL cholesterol combined (also referred to as apo B containing lipoprotein cholesterol or non-HDL cholesterol), HDL cholesterol, and the ratio of HDL cholesterol to that of VLDL plus LDL cholesterol (FIG. 7), serum glucose, and non-esterified fatty acids (FIG. 8), and percent weight gain (FIG. 9). […] In particular, Compound A caused a marked elevation in HDL cholesterol after one week of treatment. Using the serum total cholesterol values (FIG. 5A) and the lipoprotein cholesterol distribution (FIG. 6), the amount of cholesterol associated with non-HDL (i.e., VLDL plus LDL) and HDL were determined (FIG. 7). […] In contrast, troglitazone reduced non-HDL and HDL cholesterol by 67% and 4%, respectively.

[5] = system: chow fed male Sprague-Dawley rats; assay: Serum lipids, lipoproteins, apolipoproteins and weight gain in chow fed male Sprague-Dawley rats after seven daily oral doses; type: in vivo, rat; settings: 100 mg/kg, seven days, vs vehicle
Protocol: Illustrative compounds of the invention were administered daily at a dose of 100 mg/kg to chow fed male Sprague-Dawley rats for seven days in the morning by oral gavage in 1.5% carboxymethylcellulose/0.2% Tween-20 (dosing vehicle). Animals were weighed daily. Animals were allowed free access to rodent chow and water throughout the study. After the seventh dose, animals were sacrificed in the evening and blood serum was assayed for lipoprotein cholesterol profiles, serum triglycerides, total cholesterol VLDL, LDL, and HDL cholesterol, and the ratio of HDL cholesterol to that of VLDL plus LDL cholesterol, apolipoproteins A-I, C-II, C-III, and E by immunoelectrophoresis, and percent weight gain.
The five compounds were tested in two separate experiments. In each experiment, the experimental data were normalized against a control group of rats which received the dosing vehicle alone.

Compound: CC(C)(O)CCCCOCCCCC(C)(C)O [Compound F, 6-(5-hydroxy-5-methyl-hexyloxy)-2-methyl-hexan-2-ol]
rate of saponified fatty acid synthesis (in words) [1]: reduced the rates of saponified fatty acid synthesis

Compound: CC(C)(CCCCOCCCCC(C)(C)OP(=O)(O)O)OP(=O)([O-])[O-].[Na+].[Na+] [Compound B, phosphoric acid mono-(1,1-dimethyl-5-(5-methyl-5-phosphonooxy-hexyloxy)-pentyl) ester sodium salt]
Body Weight Gain (% of Pre-treatment) ([2]; Experiment B, 100 mg/kg/day, 14 days, control +10.7): +12.0 % of Pre-treatment
Triglycerides (% of Pre-treatment) ([2]; Experiment B, 100 mg/kg/day, 14 days, control −31.9): +24.6 % of Pre-treatment

Compound: CC(C)(CCCOCCCC(C)(C)OP(=O)(OCc1ccccc1)OCc1ccccc1)OP(=O)(OCc1ccccc1)OCc1ccccc1 [Compound E, phosphoric acid dibenzyl ester 4-(4-(bis-benzyloxy-phosphoryloxy)-4-methyl-pentyloxy)-1,1-dimethyl-butyl ester]
rate of saponified fatty acid synthesis (in words) [1]: reduced the rates of saponified fatty acid synthesis

serum glucose (in words) [4]: did not induce a hypoglycemic state
Compound: CC(C)(CO)CCCCOCCCCC(C)(C)CO [Compound A, 6-(6-hydroxy-5,5-dimethylhexyloxy)-2,2-dimethyl-hexan-1-ol]
HDL (in words) [3]: HDL elevation in all treated mice
LDL cholesterol (in words) [3]: rapid and significant reduction in LDL cholesterol
change in VLDL cholesterol [5]: no change
Body Weight Gain (% of Pre-treatment) ([2]; Experiment C, 1 mg/kg/day, 14 days, control +16.7): +16.7 % of Pre-treatment
Triglycerides (% of Pre-treatment) ([2]; Experiment C, 1 mg/kg/day, 14 days, control −11.2): −8.8 % of Pre-treatment
Body Weight Gain (% of Pre-treatment) ([2]; Experiment C, 3 mg/kg/day, 14 days, control +16.7): +17.5 % of Pre-treatment
Triglycerides (% of Pre-treatment) ([2]; Experiment C, 3 mg/kg/day, 14 days, control −11.2): −24.6 % of Pre-treatment
HDL-Cholesterol (% of Pretreatment) ([2]; Experiment C, 3 mg/kg/day, 14 days, control −29.8): −3.7 % of Pretreatment
Body Weight Gain (% of Pre-treatment) ([2]; Experiment C, 10 mg/kg/day, 14 days, control +16.7): +10.7 % of Pre-treatment
Triglycerides (% of Pre-treatment) ([2]; Experiment C, 10 mg/kg/day, 14 days, control −11.2): −50.9 % of Pre-treatment
Body Weight Gain (% of Pre-treatment) ([2]; Experiment C, 30 mg/kg/day, 14 days, control +16.7): +11.3 % of Pre-treatment
Triglycerides (% of Pre-treatment) ([2]; Experiment C, 30 mg/kg/day, 14 days, control −11.2): −42.0 % of Pre-treatment
Triglycerides (% of Pre-treatment) ([2]; Experiment C, 100 mg/kg/day, 14 days, control −11.2): −57.0 % of Pre-treatment
glucose to insulin ratio (in words) ([2]; Experiment C, Compound A 100 mg/kg (FIG. 14)): reduced
blood glucose (in words) ([2]; Experiment C, Compound A 100 mg/kg, troglitazone 40 mg/kg, fasted rats (FIG. 12)): tendency to lower blood glucose
reduction of serum triglycerides (in words) ([2]; Experiment C, Compound A 1-100 mg/kg, troglitazone 12, 40, 120 mg/kg (FIG. 10)): reduced serum triglyceride levels at all doses
glucose to insulin ratio (in words) ([2]; Experiment C, Compound A 1 and 3 mg/kg, two weeks (FIG. 14)): declined by approximately ⅓ to ½
weekly percent weight gain (in words) ([2]; Experiment C, Compound A 10, 30 and 100 mg/kg, after one and two weeks (FIG. 15)): markedly reduced
glucose to insulin ratio (in words) ([2]; Experiment C, Compound A 10 and 30 mg/kg (FIG. 14)): sustained at pretreatment levels
serum insulin (in words) ([2]; Experiment C, higher Compound A doses (FIG. 13)): sharp rise in serum insulin was largely curtailed or minimized
Triglycerides (% of Pre-treatment) ([2]; Experiment D, 10 mg/kg/day, 14 days, control +1.6): −11.1 % of Pre-treatment
Body Weight Gain (% of Pre-treatment) ([2]; Experiment D, 10 mg/kg/day, 14 days, control +10.6): +2.2 % of Pre-treatment
Triglycerides (% of Pre-treatment) ([2]; Experiment D, 100 mg/kg/day, 14 days, control +1.6): −62.9 % of Pre-treatment
Body Weight Gain (% of Pre-treatment) ([2]; Experiment D, 100 mg/kg/day, 14 days, control +10.6): +4.5 % of Pre-treatment
Non HDL-Cholesterol (% of Pretreatment) ([2]; Experiment D, 100 mg/kg/day, 14 days, control +15.2): +7.5 % of Pretreatment
Triglycerides (% of Pre-treatment) ([2]; Experiment E, 100 mg/kg/day, 14 days, control +12.0): −43.2 % of Pre-treatment
Body Weight Gain (% of Pre-treatment) ([2]; Experiment E, 100 mg/kg/day, 14 days, control +21.9): +19.1 % of Pre-treatment
Non HDL-Cholesterol (% of Pretreatment) ([2]; Experiment E, 100 mg/kg/day, 14 days, control −13.1): +7.2 % of Pretreatment
